Results reported in ChEMBL document CHEMBL5678804 (Cancer Cell, 2011).
Active and inactive are the calls of the source. The rule behind the calls is not given here.

What was measured:
[1] = target: Receptor-interacting serine/threonine-protein kinase 2 (Homo sapiens, UniProt O43353); assay: Inhibition of human wild type RIPK2 using RBER-CHKtide as substrate preincubated for 2 hrs followed by ATP addition and measured every 2 mins for […] by spectrophotometric analysis
[2] = target: Signal transducer and activator of transcription 5A (Homo sapiens) (UniProt P42229); assay: Inhibition of STAT5 phosphorylation in Ph+ B-ALL patient with […] mutation derived human Leukemia cell at 50 to 1000 nM by immunoblot analysis; type: cell-based; conditions: dose 50-1000 nM
[3] = target: NUAK family SNF1-like kinase 2 (Homo sapiens, UniProt Q9H093); assay: Inhibition of human wild type SNARK using Histon H2B as substrate preincubated for 2 hrs followed by ATP addition and measured every 2 mins for […] by spectrophotometric analysis
[4] = target: Vascular endothelial growth factor receptor 3 (Homo sapiens, UniProt P35916); assay: Inhibition of human wild type FLT4 using PolyEY as substrate preincubated for 2 hrs followed by ATP addition and measured every 2 mins for […] by spectrophotometric analysis
[5] = target: Platelet-derived growth factor receptor alpha (Homo sapiens, UniProt P16234); assay: Inhibition of human wild type PDGFR alpha using Poly(Ala,Glu,Lys,Tyr)6:2:5:1 as substrate preincubated for 2 hrs followed by ATP addition and measured every 2 mins for […] by spectrophotometric analysis
Platelet-derived growth factor receptor alpha, sequence (P16234 whole entry): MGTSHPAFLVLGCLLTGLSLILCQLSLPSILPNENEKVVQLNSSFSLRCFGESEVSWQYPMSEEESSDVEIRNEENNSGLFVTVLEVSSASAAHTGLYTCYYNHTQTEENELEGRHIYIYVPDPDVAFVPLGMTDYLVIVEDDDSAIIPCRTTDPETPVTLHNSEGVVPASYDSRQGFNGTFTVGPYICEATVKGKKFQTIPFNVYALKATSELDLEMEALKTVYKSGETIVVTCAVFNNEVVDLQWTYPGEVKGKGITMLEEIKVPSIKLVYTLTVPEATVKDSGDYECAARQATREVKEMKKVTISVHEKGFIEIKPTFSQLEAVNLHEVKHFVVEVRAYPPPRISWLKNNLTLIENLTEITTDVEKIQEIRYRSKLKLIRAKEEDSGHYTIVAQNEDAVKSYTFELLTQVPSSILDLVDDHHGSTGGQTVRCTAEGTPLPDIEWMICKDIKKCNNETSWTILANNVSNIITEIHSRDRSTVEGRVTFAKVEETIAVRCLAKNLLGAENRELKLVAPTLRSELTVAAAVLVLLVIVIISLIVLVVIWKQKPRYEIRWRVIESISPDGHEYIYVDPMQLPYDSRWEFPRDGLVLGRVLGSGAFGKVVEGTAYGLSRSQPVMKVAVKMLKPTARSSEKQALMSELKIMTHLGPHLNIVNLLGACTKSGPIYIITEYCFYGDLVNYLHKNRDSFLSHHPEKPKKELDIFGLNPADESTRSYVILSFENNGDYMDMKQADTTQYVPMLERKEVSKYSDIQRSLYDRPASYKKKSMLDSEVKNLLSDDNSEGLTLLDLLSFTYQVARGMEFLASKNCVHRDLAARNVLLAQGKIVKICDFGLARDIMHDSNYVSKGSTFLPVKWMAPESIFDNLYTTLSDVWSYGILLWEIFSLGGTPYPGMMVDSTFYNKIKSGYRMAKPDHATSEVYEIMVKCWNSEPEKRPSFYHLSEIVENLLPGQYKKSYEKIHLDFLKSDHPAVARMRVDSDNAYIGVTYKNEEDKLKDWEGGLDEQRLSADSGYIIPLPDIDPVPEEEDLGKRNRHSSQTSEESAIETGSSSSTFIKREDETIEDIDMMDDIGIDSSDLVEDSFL

[6] = target: Activin receptor type-1-like (Homo sapiens, UniProt P37023); assay: Inhibition of human wild type ALK1 using Casein as substrate preincubated for 2 hrs followed by ATP addition and measured every 2 mins for […] by spectrophotometric analysis
Activin receptor type-1-like, sequence (P37023 whole entry): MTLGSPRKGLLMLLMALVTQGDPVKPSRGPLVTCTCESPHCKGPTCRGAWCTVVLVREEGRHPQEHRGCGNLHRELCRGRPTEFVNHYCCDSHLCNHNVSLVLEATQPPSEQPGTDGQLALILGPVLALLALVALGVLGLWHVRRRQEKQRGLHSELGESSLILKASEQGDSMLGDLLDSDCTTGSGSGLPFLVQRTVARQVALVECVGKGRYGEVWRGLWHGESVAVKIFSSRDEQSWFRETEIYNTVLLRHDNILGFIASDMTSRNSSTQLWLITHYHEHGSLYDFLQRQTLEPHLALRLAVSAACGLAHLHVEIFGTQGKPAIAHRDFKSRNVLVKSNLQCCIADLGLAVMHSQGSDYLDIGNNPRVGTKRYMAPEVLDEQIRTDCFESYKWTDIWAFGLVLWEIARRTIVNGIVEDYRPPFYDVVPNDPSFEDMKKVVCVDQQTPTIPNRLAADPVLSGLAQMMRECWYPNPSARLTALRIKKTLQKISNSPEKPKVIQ

[7] = target: Serine/threonine-protein kinase Chk1 (Homo sapiens, UniProt O14757); assay: Inhibition of human wild type CHK1 using RBER-CHKtide as substrate preincubated for 2 hrs followed by ATP addition and measured every 2 mins for […] by spectrophotometric analysis
Serine/threonine-protein kinase Chk1, sequence (O14757 whole entry): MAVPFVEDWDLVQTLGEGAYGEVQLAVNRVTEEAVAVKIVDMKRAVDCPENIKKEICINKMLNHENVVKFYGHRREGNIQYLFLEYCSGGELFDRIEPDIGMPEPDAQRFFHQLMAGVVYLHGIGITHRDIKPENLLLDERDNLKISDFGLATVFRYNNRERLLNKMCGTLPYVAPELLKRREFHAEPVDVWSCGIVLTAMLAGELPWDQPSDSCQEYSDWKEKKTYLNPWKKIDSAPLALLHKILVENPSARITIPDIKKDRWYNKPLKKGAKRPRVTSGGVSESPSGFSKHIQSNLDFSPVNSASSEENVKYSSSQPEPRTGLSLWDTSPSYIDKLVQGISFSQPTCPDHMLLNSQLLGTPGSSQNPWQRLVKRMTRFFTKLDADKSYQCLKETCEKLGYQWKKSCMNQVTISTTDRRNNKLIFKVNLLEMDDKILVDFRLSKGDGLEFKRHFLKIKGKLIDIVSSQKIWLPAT

[8] = target: Serine/threonine-protein kinase TAO1 (Homo sapiens, UniProt Q7L7X3); assay: Inhibition of human TAOK1 preincubated for 2 hrs followed by ATP addition and measured every 2 mins for […] by spectrophotometric analysis
[9] = target: Proto-oncogene tyrosine-protein kinase ROS (Homo sapiens, UniProt P08922); assay: Inhibition of human wild type ROS using Poly(Ala,Glu,Lys,Tyr)6:2:5:1 as substrate preincubated for 2 hrs followed by ATP addition and measured every 2 mins for […] by spectrophotometric analysis
[10] = target: T1, Tyrosine-protein kinase ABL1 (Homo sapiens, UniProt P00519); conditions: Sf9, time 2.0 hrs
T1 sequence (P00519 whole entry): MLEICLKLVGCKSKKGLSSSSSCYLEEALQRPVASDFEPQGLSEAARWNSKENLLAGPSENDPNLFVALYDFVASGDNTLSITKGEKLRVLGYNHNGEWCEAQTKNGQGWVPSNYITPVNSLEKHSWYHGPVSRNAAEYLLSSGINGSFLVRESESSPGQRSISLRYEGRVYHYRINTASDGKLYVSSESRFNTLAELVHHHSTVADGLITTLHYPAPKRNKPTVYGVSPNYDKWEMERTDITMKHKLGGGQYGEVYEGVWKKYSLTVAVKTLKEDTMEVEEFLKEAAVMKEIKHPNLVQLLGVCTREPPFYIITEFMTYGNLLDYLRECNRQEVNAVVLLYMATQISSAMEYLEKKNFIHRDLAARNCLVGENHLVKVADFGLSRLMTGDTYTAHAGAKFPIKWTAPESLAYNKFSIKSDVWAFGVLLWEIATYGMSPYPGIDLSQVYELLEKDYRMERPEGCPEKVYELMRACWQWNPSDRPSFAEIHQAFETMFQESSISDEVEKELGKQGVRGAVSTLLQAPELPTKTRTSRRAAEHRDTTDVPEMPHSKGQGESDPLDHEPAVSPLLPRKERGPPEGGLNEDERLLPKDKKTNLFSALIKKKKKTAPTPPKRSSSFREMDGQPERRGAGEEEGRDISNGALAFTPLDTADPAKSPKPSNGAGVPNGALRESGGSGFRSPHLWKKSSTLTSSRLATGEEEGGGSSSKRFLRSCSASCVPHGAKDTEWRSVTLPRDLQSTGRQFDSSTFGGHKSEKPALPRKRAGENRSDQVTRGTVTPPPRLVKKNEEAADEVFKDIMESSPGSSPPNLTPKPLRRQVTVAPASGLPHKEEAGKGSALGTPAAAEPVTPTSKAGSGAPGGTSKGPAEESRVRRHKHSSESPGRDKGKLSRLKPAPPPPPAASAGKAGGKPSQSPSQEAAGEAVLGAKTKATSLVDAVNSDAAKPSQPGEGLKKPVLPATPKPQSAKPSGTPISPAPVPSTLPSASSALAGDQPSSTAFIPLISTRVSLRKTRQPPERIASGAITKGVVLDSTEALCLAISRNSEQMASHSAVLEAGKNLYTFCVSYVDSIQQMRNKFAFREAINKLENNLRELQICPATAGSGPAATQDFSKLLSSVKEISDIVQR

[11] = target: Serine/threonine-protein kinase pim-1 (Homo sapiens, UniProt P11309); assay: Inhibition of human wild type PIM1 using RBER-GSK3(14to 27) as substrate preincubated for 2 hrs followed by ATP addition and measured every 2 mins for […] by spectrophotometric analysis
[12] = target: Mitogen-activated protein kinase 11 (Homo sapiens, UniProt Q15759); assay: Inhibition of human wild type p38 beta using ATF2 as substrate preincubated for 2 hrs followed by ATP addition and measured every 2 mins for […] by spectrophotometric analysis
[13] = target: Insulin receptor (Homo sapiens, UniProt P06213); assay: Inhibition of human wild type IR using Poly(Ala,Glu,Lys,Tyr)6:2:5:1 as substrate preincubated for 2 hrs followed by ATP addition and measured every 2 mins for […] by spectrophotometric analysis
[14] = target: Mitogen-activated protein kinase kinase kinase 14 (Homo sapiens, UniProt Q99558); assay: Inhibition of human wild type NIK using RBER-CHKtide as substrate preincubated for 2 hrs followed by ATP addition and measured every 2 mins for […] by spectrophotometric analysis
[15] = target: Myotonin-protein kinase (Homo sapiens, UniProt Q09013); assay: Inhibition of human wild type DMPK using bio-4xCHKT as substrate preincubated for 2 hrs followed by ATP addition and measured every 2 mins for […] by spectrophotometric analysis
[16] = target: Insulin-like growth factor 1 receptor (Homo sapiens, UniProt P08069); assay: Inhibition of human wild type IGF1R using PolyEY as substrate preincubated for 2 hrs followed by ATP addition and measured every 2 mins for […] by spectrophotometric analysis
[17] = target: Glycogen synthase kinase-3 beta (Homo sapiens, UniProt P49841); assay: Inhibition of human wild type GSK3 beta using RBER-CHKtide as substrate preincubated for 2 hrs followed by ATP addition and measured every 2 mins for […] by spectrophotometric analysis
[18] = target: Tyrosine-protein kinase JAK1 (Homo sapiens, UniProt P23458); assay: Inhibition of human wild type JAK1 using RBER-IRStide as substrate preincubated for 2 hrs followed by ATP addition and measured every 2 mins for […] by spectrophotometric analysis
[19] = test system: BaF3; assay: Antitumor activity against mouse BaF3 cells harbouring BCR-ABL1 T315I mutant xenografted in Balb/c mouse model assessed as prolongation of animal survival at 100 mg/kg, po administered once daily for 21 days; type: functional, organism-based; conditions: time 21.0 day
[20] = test system: BaF3; assay: Antileukemic activity against mouse BaF3 cells harbouring BCR-ABL1 T315I mutant transduced with 5-FU treated bone marrow xenografted in Balb/c mouse assessed as improvement in circulating leukocyte count at 100 mg/kg, po administered once daily measured upto 56 days; type: functional, organism-based; conditions: time <= 56.0 day
[21] = test system: Leukemia cell; assay: Cytotoxicity against human Leukemia cell assessed as reduction in cell viability measured after 72 hrs by MTT assay; type: functional, cell-based
[22] = target: T1, Tyrosine-protein kinase ABL1; conditions: Sf9, time 2.0 hrs; remark: listed apart in the source
[23] = target: Serine/threonine-protein kinase MRCK alpha (Homo sapiens, UniProt Q5VT25); assay: Inhibition of human wild type MRCK alpha using RB-S6P as substrate preincubated for 2 hrs followed by ATP addition and measured every 2 mins for […] by spectrophotometric analysis
[24] = target: Homeodomain-interacting protein kinase 1 (Homo sapiens, UniProt Q86Z02); assay: Inhibition of human wild type HIPK1 using RBER-CHKtide as substrate preincubated for 2 hrs followed by ATP addition and measured every 2 mins for […] by spectrophotometric analysis
Homeodomain-interacting protein kinase 1, sequence (Q86Z02 whole entry): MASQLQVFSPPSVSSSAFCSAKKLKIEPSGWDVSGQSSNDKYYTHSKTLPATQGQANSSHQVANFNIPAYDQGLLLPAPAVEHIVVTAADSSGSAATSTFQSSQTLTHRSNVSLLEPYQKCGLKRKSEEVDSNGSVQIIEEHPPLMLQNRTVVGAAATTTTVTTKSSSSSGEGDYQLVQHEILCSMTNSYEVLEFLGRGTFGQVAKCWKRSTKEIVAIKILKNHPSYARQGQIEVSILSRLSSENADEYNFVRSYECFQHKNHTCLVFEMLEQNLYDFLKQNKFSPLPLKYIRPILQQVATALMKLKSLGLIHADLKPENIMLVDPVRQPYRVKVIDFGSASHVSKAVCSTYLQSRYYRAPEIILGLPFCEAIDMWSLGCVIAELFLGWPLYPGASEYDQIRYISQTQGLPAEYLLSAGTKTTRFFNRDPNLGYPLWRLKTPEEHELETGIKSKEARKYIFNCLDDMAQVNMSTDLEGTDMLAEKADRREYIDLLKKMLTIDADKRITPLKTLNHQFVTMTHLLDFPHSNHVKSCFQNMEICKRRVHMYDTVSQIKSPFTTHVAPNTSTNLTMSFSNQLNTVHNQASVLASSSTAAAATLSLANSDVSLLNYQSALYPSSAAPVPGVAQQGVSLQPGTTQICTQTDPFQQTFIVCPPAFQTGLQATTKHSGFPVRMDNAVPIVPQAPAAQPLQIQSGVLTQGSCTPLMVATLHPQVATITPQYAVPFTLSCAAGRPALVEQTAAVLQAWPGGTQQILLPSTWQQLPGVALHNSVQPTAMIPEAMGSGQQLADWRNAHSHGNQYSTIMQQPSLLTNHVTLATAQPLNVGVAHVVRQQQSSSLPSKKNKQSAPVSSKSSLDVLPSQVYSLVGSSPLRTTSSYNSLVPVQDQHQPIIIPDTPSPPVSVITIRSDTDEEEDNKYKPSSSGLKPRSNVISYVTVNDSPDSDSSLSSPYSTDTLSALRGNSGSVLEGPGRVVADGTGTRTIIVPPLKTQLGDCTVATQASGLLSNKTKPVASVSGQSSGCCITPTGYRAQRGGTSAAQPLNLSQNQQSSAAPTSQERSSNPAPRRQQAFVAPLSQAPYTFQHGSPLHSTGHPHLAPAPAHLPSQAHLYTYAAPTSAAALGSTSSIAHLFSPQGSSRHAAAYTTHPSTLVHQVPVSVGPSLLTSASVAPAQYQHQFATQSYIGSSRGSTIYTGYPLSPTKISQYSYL

[25] = target: Dual specificity tyrosine-phosphorylation-regulated kinase 1A (Homo sapiens, UniProt Q13627); assay: Inhibition of human wild type DYRK1 using RBER-CHKtide as substrate preincubated for 2 hrs followed by ATP addition and measured every 2 mins for […] by spectrophotometric analysis
[26] = target: Tyrosine-protein kinase BTK (Homo sapiens, UniProt Q06187); assay: Inhibition of human wild type BTK using PolyEY as substrate preincubated for 2 hrs followed by ATP addition and measured every 2 mins for […] by spectrophotometric analysis
Tyrosine-protein kinase BTK, sequence (Q06187 whole entry): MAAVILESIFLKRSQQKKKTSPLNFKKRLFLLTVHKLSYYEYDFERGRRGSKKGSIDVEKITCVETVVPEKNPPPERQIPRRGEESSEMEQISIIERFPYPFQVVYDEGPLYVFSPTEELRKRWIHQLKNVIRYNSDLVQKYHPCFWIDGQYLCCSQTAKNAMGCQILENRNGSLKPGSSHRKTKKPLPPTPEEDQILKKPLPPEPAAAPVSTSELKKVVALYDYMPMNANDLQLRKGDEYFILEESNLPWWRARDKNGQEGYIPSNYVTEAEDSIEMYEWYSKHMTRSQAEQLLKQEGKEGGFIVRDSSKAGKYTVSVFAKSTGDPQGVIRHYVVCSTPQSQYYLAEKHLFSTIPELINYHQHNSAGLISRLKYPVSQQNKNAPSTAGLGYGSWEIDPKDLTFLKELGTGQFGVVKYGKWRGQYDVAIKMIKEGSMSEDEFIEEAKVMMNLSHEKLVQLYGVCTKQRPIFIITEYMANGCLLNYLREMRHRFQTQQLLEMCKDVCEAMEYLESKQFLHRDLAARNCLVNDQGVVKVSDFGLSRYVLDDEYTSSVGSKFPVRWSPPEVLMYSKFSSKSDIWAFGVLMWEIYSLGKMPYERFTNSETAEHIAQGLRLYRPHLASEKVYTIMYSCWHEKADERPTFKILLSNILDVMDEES

[27] = Inhibition of human wild type PDGFR beta using Poly(Ala,Glu,Lys,Tyr)6:2:5:1 as substrate preincubated for 2 hrs followed by ATP addition and measured every 2 mins for […] by spectrophotometric analysis
[28] = target: Protein kinase C delta type (Homo sapiens, UniProt Q05655); assay: Inhibition of human wild type PKC delta using 3xChocktide-PKC(19to 31) as substrate preincubated for 2 hrs followed by ATP addition and measured every 2 mins for […] by spectrophotometric analysis

SMILES: CNC(=O)c1cc(Oc2ccc(NC(=O)Nc3cc(C(C)(C)C)nn3-c3ccc4ncccc4c3)c(F)c2)ccn1 [REBASTINIB]
- IC50 [1]: > 1000 nM
- inhibition [2]: Active
- IC50 [3]: > 1000 nM
- IC50 [4]: 240 nM
- IC50 [5]: 70 nM
- IC50 [6]: > 1000 nM
- IC50 [7]: > 1000 nM
- IC50 [8]: > 1000 nM
- IC50 [9]: 340 nM
- Kdiss [10]: 3.33e-05 s⁻¹
- IC50 [11]: > 1000 nM
- IC50 [12]: 790 nM
- IC50 [13]: > 1000 nM
- IC50 [14]: > 1000 nM
- IC50 [15]: > 1000 nM
- IC50 [16]: > 1000 nM
- IC50 [17]: > 1000 nM
- IC50 [18]: 850 nM
- Activity [19]: Active
- Activity [20]: Active
- Activity [21]: Active
- T1/2 [22]: 6.53 h
- IC50 [23]: > 1000 nM
- IC50 [24]: > 1000 nM
- IC50 [25]: > 1000 nM
- IC50 [26]: 330 nM
- IC50 [27]: 113 nM
- IC50 [28]: > 1000 nM
